Structures can show the parent of a compound that is named as a salt. Where two headings read alike, the source gives them in different places.
Target: T1, rat VMAT2-His (Rattus norvegicus, UniProt Q01827)
T1 construct: The ORF of rat VMAT2 was subcloned into a pFastBac vector; His; made in house; host or cells: Sf9 insect cells (baculovirus)
Experiment: Differential scanning fluorimetry (DSF) with CPM dye: change of melting temperature of purified VMAT2
Assay type: binding
Conditions: for ΔTm at 10 µM / ΔTm at 30 µM / ΔTm at 90 µM / ΔTm at 270 µM / ΔTm at 11 µM / ΔTm at 12 µM / ΔTm at 33 µM / ΔTm at 37 µM: read-out: ΔTm
Description: To screen purified VMAT2 by DSF we expressed the rat VMAT2 protein, as VMAT2-His, in SF9 insect cells using the baculovirus expression system. The transporter was solubilized and purified in n-Dodecyl-β-D-maltoside (DDM)/cholesterol hemisuccinate (CHS) micelles by immobilized metal affinity chromatography (IMAC) and size exclusion chromatography (SEC). […] Screening was performed using DSF and the thiol-reactive dye 7-diethylamino-3-(4-maleimidophenyl)-4-methylcoumarin (CPM), an approach that monitors changes to the protein melting temperature (Tm) upon compound binding. Using CPM or other dyes, DSF-based assays have successfully been used in molecular-based screenings[34],[35]. […] DSF screening was performed in 384 well plates using the thiol-sensing dye 7-diethylamino-3-(4-maleimidophenyl)-4-methylcoumarin (CPM) (Merck). […] Protein melting curves were determined using a LightCycler 480 ii RT-PCR system (Roche), with a temperature ramp increasing from 25 to 95 °C at a rate of 2 °C/min. Data analysis was performed using an in-house software that automatically determines the protein midpoint melting temperature (Tm) based on the second derivative of the melting curves or using the HTSDSF explorer as described in ref. [58]. […] 6 μl of this mix was dispensed to each well of 384 well plates using a Multidrop™ Combi Reagent Dispenser (Thermo Scientific). […] All initial hits were then subjected to an initial validation in triplicates with a compound concentration of 200 μM and a ΔTm > 5× the standard deviation (SD) cut off. […] Processing of the data from the primary screening and the concentration-dependent validation was performed as reported.

[1] = Table S1, primary hits, average change in melting temperature vs controls, triplicates
[2] = Table S2 dose response, compound 10 µM
[3] = Table S2 dose response, compound 30 µM
[4] = Table S2 dose response, compound 90 µM
[5] = Table S2 dose response, compound 270 µM
[6] = Table S2 dose response, compound 0,12 µM
[7] = Table S2 dose response, compound 0,37 µM
[8] = Table S2 dose response, compound 1,11 µM
[9] = Table S2 dose response, compound 3,33 µM

T1 sequence (Q01827 whole entry): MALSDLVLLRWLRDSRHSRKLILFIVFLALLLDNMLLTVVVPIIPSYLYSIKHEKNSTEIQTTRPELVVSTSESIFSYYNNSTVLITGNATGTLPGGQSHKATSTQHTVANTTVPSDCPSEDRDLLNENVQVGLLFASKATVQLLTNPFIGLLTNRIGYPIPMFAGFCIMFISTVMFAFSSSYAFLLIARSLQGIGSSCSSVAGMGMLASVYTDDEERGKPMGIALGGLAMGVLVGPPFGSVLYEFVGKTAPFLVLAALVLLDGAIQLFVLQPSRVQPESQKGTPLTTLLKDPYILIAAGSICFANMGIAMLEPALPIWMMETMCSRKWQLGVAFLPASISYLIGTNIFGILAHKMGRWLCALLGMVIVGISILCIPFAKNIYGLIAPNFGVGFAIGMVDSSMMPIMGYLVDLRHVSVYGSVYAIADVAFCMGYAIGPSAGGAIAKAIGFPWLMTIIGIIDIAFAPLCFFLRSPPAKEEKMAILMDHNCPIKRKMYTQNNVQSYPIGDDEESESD

Compound | ΔTm [1] | ΔTm at 10 µM [2] | ΔTm at 30 µM [3] | ΔTm at 90 µM [4] | ΔTm at 270 µM [5] | ΔTm at 12 µM [6] | ΔTm at 37 µM [7] | ΔTm at 11 µM [8] | ΔTm at 33 µM [9] | further results
CC(C)(C)c1ccc(C(O)CCCN2CCC(C(O)(c3ccccc3)c3ccccc3)CC2)cc1 (stereo not drawn) [Terfenadine] | -13,22 ± 0,13 oC | 0.21 °C | 0.24 °C | -0.01 °C | -0.6 °C |  |  |  |  | 
C1CCC(C(CC2CCCCN2)C2CCCCC2)CC1 (stereo not drawn) [Perhexiline maleate] |  | -0.18 °C | -0.27 °C | -1.17 °C | -3.23 °C |  |  |  |  | 
C#CCN(C)[C@H](C)Cc1ccccc1 [Selegiline hydrochloride] |  | 0.3 °C | 0.19 °C | 0.28 °C |  |  |  |  |  | ΔTm at 11 µM: 0.31 °C; ΔTm at 12 µM: 0.33 °C; ΔTm at 33 µM: 0.32 °C; ΔTm at 37 µM: 0.38 °C; ΔTm at 270 µM: 0.36 °C
CN1CCN(CCCN2c3ccccc3Sc3ccc(C(F)(F)F)cc32)CC1 [Trifluoperazine dihydrochloride] |  |  |  |  |  |  |  |  |  | ΔTm: -6,15 ± 0, 08 oC; ΔTm at 10 µM: -0.69 °C; ΔTm at 30 µM: -0.28 °C; ΔTm at 90 µM: -0.23 °C; ΔTm at 270 µM: -1.05 °C
C[C@H](CCC(=O)O)[C@H]1CC[C@H]2[C@@H]3C(=O)C[C@@H]4CC(=O)CC[C@]4(C)[C@H]3CC(=O)[C@]12C [Dehydrocholic acid] | 1,51 ± 0,28 oC | 0.39 °C | 0.66 °C | 0.53 °C | 1.43 °C |  |  |  |  | 
CCCc1nn(C)c2c(=O)[nH]c(-c3cc(S(=O)(=O)N4CCN(C)CC4)ccc3OCC)nc12 [Sildenafil] | 1,10 ± 0,14 oC | 0.11 °C | 0.1 °C | 0.39 °C | 1.04 °C | 0.43 °C | 0.04 °C | 0.04 °C | 0.09 °C | 
CN(C)CCCN1c2ccccc2Sc2ccc(C(F)(F)F)cc21 [Triflupromazine hydrochloride] |  |  |  |  |  |  |  |  |  | ΔTm: -4,15 ± 0, 03 oC; ΔTm at 10 µM: -0.1 °C; ΔTm at 30 µM: -0.1 °C; ΔTm at 90 µM: -0.84 °C; ΔTm at 270 µM: -2.21 °C
CN1CCCC(n2nc(Cc3ccc(Cl)cc3)c3ccccc3c2=O)CC1 (stereo not drawn) [Azelastine HCl] | 0,85 ± 0,24 oC | -0.6 °C | 0.35 °C | 0.23 °C | 0.55 °C |  |  |  |  | 
CN[C@@H]1C[C@@H](c2ccc(Cl)c(Cl)c2)c2ccccc21 [Indatraline hydrochloride] |  | -0.37 °C | -0.63 °C | -1.01 °C |  |  |  |  |  | ΔTm at 11 µM: -0.28 °C; ΔTm at 12 µM: 0.24 °C; ΔTm at 33 µM: -0.41 °C; ΔTm at 37 µM: 0.04 °C; ΔTm at 270 µM: -2.11 °C
Cl.Cl.OCCN1CCN(CC/C=C2/c3ccccc3Sc3ccc(Cl)cc32)CC1 [Zuclopenthixol dihydrochloride] |  |  |  |  |  |  |  |  |  | ΔTm (11 µM): -0,58 oC; ΔTm (12 µM): -0,36 oC; ΔTm (33 µM): 0,03 oC; ΔTm (37 µM): -0,44 oC; ΔTm (270 µM): -1,51 oC; ΔTm [2]: -0,07 oC; ΔTm [3]: -1,80 oC; ΔTm [4]: -0,79 oC
CCCCC(CC)CN1CN(CC(CC)CCCC)CC(C)(N)C1 (stereo not drawn) [Hexetidine] |  | -0.28 °C | -0.3 °C | -0.46 °C | -1.54 °C | -0.09 °C | -0.06 °C | -0.02 °C | -0.07 °C | 
C[C@@H]1C[C@H]2[C@@H]3C[C@H](F)C4=CC(=O)C=C[C@]4(C)[C@@]3(Cl)[C@@H](O)C[C@]2(C)[C@H]1C(=O)COC(=O)C(C)(C)C [Clocortolone pivalate] | 1,04 ± 0,11 oC |  |  |  |  |  |  |  |  | 
CN1CCC(=C2c3ccccc3Sc3ccccc32)CC1 [Pimethixene maleate] |  | 0.15 °C | -0.18 °C | -0.14 °C | -1.59 °C |  |  |  |  | 
Fc1ccc(C(OCCN2CCN(CCCc3ccccc3)CC2)c2ccc(F)cc2)cc1 [GBR 12909 dihydrochloride] | -17,11 ± 0,01 oC | -1.07 °C | -1.67 °C | -2.3 °C | -5.4 °C | -0.02 °C | -0.01 °C | 0.05 °C | -0.34 °C | 
Cc1cccc(C)c1NC(=O)CN1CCN(CCCC(c2ccc(F)cc2)c2ccc(F)cc2)CC1 [Lidoflazine] | 1,35 ± 0,18 oC | 0.23 °C | 0.21 °C | 0.33 °C | 1.14 °C | 0.23 °C | 0.05 °C | 0.12 °C | 0.16 °C | 
CC(C(O)c1ccc(O)cc1)N1CCC(Cc2ccccc2)CC1.CC(C(O)c1ccc(O)cc1)N1CCC(Cc2ccccc2)CC1.O=C(O)C(O)C(O)C(=O)O (stereo not drawn) [Ifenprodil tartrate] | 1,23 ± 0,40 oC |  |  |  |  |  |  |  |  | ΔTm (11 µM): -0,20 oC; ΔTm (12 µM): 0,30 oC; ΔTm (33 µM): 0,14 oC; ΔTm (37 µM): 0,32 oC; ΔTm (270 µM): 0,41 oC; ΔTm [2]: 0,09 oC; ΔTm [3]: 0,06 oC; ΔTm [4]: -0,04 oC
OC(c1cc(C(F)(F)F)nc2c(C(F)(F)F)cccc12)C1CCCCN1 (stereo not drawn) [Mefloquine hydrochloride] | -11,15 ± 0,23 oC | 0.1 °C | 0.21 °C | 0.09 °C | 0.08 °C | -0.02 °C | 0.04 °C | 0 °C | -0.11 °C | 
CC(CCc1ccccc1)NCC(O)c1ccc(O)c(C(N)=O)c1 (stereo not drawn) [Labetalol hydrochloride] | 0,81 ± 0,07 oC | 0.27 °C | 0.42 °C | 0.1 °C | 0.24 °C |  |  |  |  | 
O=C(c1ccc(F)cc1)C1CCN(CCn2c(=O)[nH]c3ccccc3c2=O)CC1 [Ketanserin tartrate hydrate] | 3,12 ± 0,24 oC | 1.16 °C | 1.17 °C | 0.95 °C | 2.18 °C |  |  |  |  | 
Clc1ccc(Cn2c(CN3CCCC3)nc3ccccc32)cc1 [Clemizole hydrochloride] | -1,46 ± 0,10 oC | 0.33 °C | 0.57 °C | 0.31 °C | -0.69 °C |  |  |  |  | 
C=CCc1ccccc1OCC(O)CNC(C)C (stereo not drawn) [Alprenolol hydrochloride] | 2,30 ± 0,05 oC | 0.14 °C | 0.73 °C | 0.4 °C | 1.21 °C | -0.11 °C | -0.04 °C | 0.04 °C | 0.02 °C | 
CC(C)(C)NC(=O)[C@@H]1C[C@@H]2CCCC[C@@H]2CN1C[C@@H](O)[C@H](Cc1ccccc1)NC(=O)[C@H](CC(N)=O)NC(=O)c1ccc2ccccc2n1 [Saquinavir mesylate] |  | -0.91 °C | -0.7 °C | -0.55 °C | -1.64 °C | -0.17 °C | -0.28 °C | -0.49 °C | -0.65 °C | 
CCCCCCC[N+](CC)(CC)CCCCc1ccc(Cl)cc1.Cc1ccc(S(=O)(=O)[O-])cc1 [Clofilium tosylate] |  |  |  |  |  |  |  |  |  | ΔTm (270 µM): -2,26 oC; ΔTm [2]: -0,06 oC; ΔTm [3]: -0,15 oC; ΔTm [4]: -0,36 oC
COC(=O)[C@H]1[C@H]2C[C@@H]3c4[nH]c5cc(OC)ccc5c4CCN3C[C@H]2C[C@@H](OC(=O)c2cc(OC)c(OC)c(OC)c2)[C@@H]1OC [Reserpine] |  |  |  |  |  |  |  |  |  | ΔTm at 10 µM: 13.5 °C; ΔTm at 11 µM: 13.6 °C; ΔTm at 12 µM: 13.7 °C; ΔTm at 30 µM: 13.9 °C; ΔTm at 33 µM: 13.6 °C; ΔTm at 37 µM: 13.7 °C; ΔTm at 90 µM: 14 °C; ΔTm at 270 µM: 13.7 °C
C[C@H](CCC(=O)O)[C@H]1CC[C@H]2[C@@H]3[C@H](O)C[C@@H]4C[C@H](O)CC[C@]4(C)[C@H]3CC[C@]12C [Chenodiol] | 1,98 ± 0,15 oC | 0.64 °C | 0.35 °C | 0.57 °C | 2.24 °C | -0.11 °C | -0.01 °C | 0.17 °C | 0.19 °C | 
CC(C)COCC(CN(Cc1ccccc1)c1ccccc1)N1CCCC1 (stereo not drawn) [Bepridil hydrochloride] |  | -1.08 °C | -1.2 °C | -1.63 °C | -3.8 °C | -0.78 °C | -0.68 °C | -0.75 °C | -0.93 °C | 
CCSc1ccc2c(c1)N(CCCN1CCN(C)CC1)c1ccccc1S2.O=C(O)CC(O)C(=O)O.O=C(O)CC(O)C(=O)O [Thiethylperazine dimalate] |  |  |  |  |  |  |  |  |  | ΔTm (11 µM): -0,77 oC; ΔTm (12 µM): -0,61 oC; ΔTm (33 µM): -0,78 oC; ΔTm (37 µM): -0,58 oC; ΔTm (270 µM): -3,69 oC; ΔTm [2]: -1,01 oC; ΔTm [3]: -1,34 oC; ΔTm [4]: -2,15 oC
